Assay results reported in the NIST ThermoML archive (doi:10.1016/j.jct.2014.06.017).

Test: wn = mass fraction of the nth substance listed
Settings: 100 kPa, Liquid, Concentric cylinders viscometry

NCCO [2-aminoethan-1-ol] + O
viscosity [mPa·s]
Settings | 298.2 K | 303.2 K | 313.2 K | 323.2 K
w1 = 0.2 | 1.72 | 1.53 | 1.18 | 0.98
w1 = 0.2499 | 2.02 | 1.79 | 1.32 | 1.12
w1 = 0.3001 | 2.32 | 2.13 | 1.59 | 1.31

CN(CCO)CCO [N-methyldiethanolamine] + O
viscosity [mPa·s]
Settings | 298.2 K | 303.2 K | 313.2 K | 323.2 K
w1 = 0.3502 | 4.07 | 3.36 | 2.56 | 2.02
w1 = 0.4001 | 5.2 | 4.41 | 3.02 | 2.65
w1 = 0.45 | 7.62 | 6.1 | 4.37 | 3.63

OCCNCCO [diethanolamine] + O
viscosity [mPa·s]
Settings | 298.2 K | 303.2 K | 313.2 K | 323.2 K
w1 = 0.2001 | 1.92 | 1.67 | 1.32 | 1.05
w1 = 0.25 | 2.61 | 2.16 | 1.67 | 1.34
w1 = 0.3001 | 3.26 | 2.57 | 1.99 | 1.41
